Results taken from US5498775A, “Polyanionic benzylglycosides as inhibitors of smooth muscle cell proliferation” (American Home Products Corporation, priority 1994, dated 1996).
Counter-ions that a name gives are not always drawn.

What was measured:
normal human plasma = assay: Anticoagulant activity, partial thromboplastin time (APTT) assay; assay type: biochemical; conditions: for Anticoagulation Activity (APTT) Relative to Heparin: ratio >1 indicates weaker activity relative to heparin on a μg/mL comparison
Description: A BBL Fibrometer automatic precesion coagulation timer utilizing a 0.3 mL probe was employed. An Ellagic acid activated partial thromboplastin was used for these experiments. This reagent was added to human citrated plasma equilibrated at 37° C. in a plastic well in the clot timer. Calcium at 37° C. was added, the clot timer was started and the time for fibrin clot formation (in seconds) was recorded. […] Clotting tests at all concentrations were run in triplicate. Analysis of variance for a randomized block design was used to determine the significance of differences observed in the clotting times.

[1] = test system: Porcine Smooth Muscle Cell; assay: Porcine smooth muscle cell antiproliferation, 3H thymidine incorporation; assay type: cell-based; conditions: for IC50: porcine aortic smooth muscle cells, 3H thymidine incorporation
Description: Cells were assayed in early passage (generally passage 3-7) at sub-confluent conditions. […] At sub-confluence, the cells were placed in a defined serum free medium (AIM-V; Gibco) for 24-48 h prior to initiating the experimental protocol.
At the completion of the experiment, plates were placed on ice, washed three times with ice cold PBS and incubated in ice cold 10% trichloroacetic acid (TCA) for 30 min to remove acid soluble proteins. Solution was transferred to scintillation vials containing 0.4N HCl (500 μL/vial to neutralize NaOH) and each well was rinsed two times with water (500 μL) for a total volume of 2 mL/vial.
Data was obtained, in triplicate, for both control and experimental samples. […] Experimental data was obtained from cells maximally stimulated with growth factor or serum and treated with compound. Data was expressed as a percent of control from which IC50 s could be determined.

human endothelial cell = assay: Effect on endothelial cell growth vs. smooth muscle cell proliferation; assay type: cell-based; conditions: driven by 2% FBS, at doses inhibitory towards human SMC proliferation driven by 10% FBS; FIG. 1
Source text: The ability of the compounds of the present invention to inhibit smooth muscle cell proliferation and modulate endothelial cell growth was established using isolated aortic cells obtained from commercial sources or, for certain species, prepared in-house. Cell lines used in this study include human and porcine aortic smooth muscle cells and human aortic endothelial cells. Human aortic cell lines were obtained from Clonetics Corporation (San Diego).
B. Effects of compounds on cell proliferation using ^3 H Thymidine incorporation
Cells were assayed in early passage (generally passage 3-7) at sub-confluent conditions. Cultures were grown in 16 mm (24 well) multi-well culture dishes in media 199 supplemented with 10% fetal bovine serum and 2% antibiotic/antimycotic. At sub-confluence, the cells were placed in a defined serum free medium (AIM-V; Gibco) for 24-48 h prior to initiating the experimental protocol.
Growth factor and serum stimulations were optimized for each cell type.
Compounds were added to each well at 50 fold dilution (20 μL/well) and the plates were incubated for 24-36 h at 37° C. in 5% CO2. […] Compounds were routinely assayed at 1, 10, and 100 μM. […]
Data was obtained, in triplicate, for both control and experimental samples. […] Data was expressed as a percent of control from which IC50 s could be determined. […]

Decanedioic Acid Bis{[3,5-bis(hepta-O-sulfato-β-D-cellobiosyloxymethyl}phenyl]amide} Octacosasodium Salt [EXAMPLE 14]
Anticoagulation Activity (APTT) Relative to Heparin (normal human plasma): 6.7
IC50 [1]: 3 µM

Cc1ccc(CO[C@@H]2O[C@H](COS(=O)(=O)O)[C@@H](OS(=O)(=O)O)[C@H](OS(=O)(=O)O)[C@H]2OS(=O)(=O)O)cc1NC(=O)CCC(=O)Nc1cc(CO[C@@H]2O[C@H](COS(=O)(=O)O)[C@@H](OS(=O)(=O)O)[C@H](OS(=O)(=O)O)[C@H]2OS(=O)(=O)O)ccc1C [EXAMPLE 25, N,N'-Bis[2-methyl-5-(2,3,4,6-tetra-O-suifato-β-D-glucopyranosyloxymethyl)phenyl]succinamide Octasodium Salt]
inhibition at 50 µg/mL ([1]; Sus scrofa, read-out: Porcine Smooth Muscle Cell Antiproliferation, % Inhibition at 50 μg/mL): 8%

O=C(Nc1cc(CO[C@@H]2O[C@H](COS(=O)(=O)O)[C@@H](OS(=O)(=O)O)[C@H](OS(=O)(=O)O)[C@H]2OS(=O)(=O)O)cc(CO[C@@H]2O[C@H](COS(=O)(=O)O)[C@@H](OS(=O)(=O)O)[C@H](OS(=O)(=O)O)[C@H]2OS(=O)(=O)O)c1)c1ccc(-c2ccc(C(=O)Nc3cc(CO[C@@H]4O[C@H](COS(=O)(=O)O)[C@@H](OS(=O)(=O)O)[C@H](OS(=O)(=O)O)[C@H]4OS(=O)(=O)O)cc(CO[C@@H]4O[C@H](COS(=O)(=O)O)[C@@H](OS(=O)(=O)O)[C@H](OS(=O)(=O)O)[C@H]4OS(=O)(=O)O)c3)cc2)cc1 [EXAMPLE 17, Biphenyl-4,4'-dicarboxylic Acid Bis{[3,5-bis(tetra-O-sulfato-β-D-glucosyloxymethyl)phenyl]amide}Hexadecasodium Salt]
Anticoagulation Activity (APTT), result in words (normal human plasma; at 50 μg/mL): insignificant activity

O=C(Nc1cc(CO[C@@H]2O[C@H](COS(=O)(=O)[O-])[C@@H](O[C@@H]3O[C@H](COS(=O)(=O)[O-])[C@H](OS(=O)(=O)[O-])[C@H](OS(=O)(=O)[O-])[C@H]3OS(=O)(=O)[O-])[C@H](OS(=O)(=O)[O-])[C@H]2OS(=O)(=O)[O-])cc(CO[C@@H]2O[C@H](COS(=O)(=O)[O-])[C@@H](O[C@@H]3O[C@H](COS(=O)(=O)[O-])[C@H](OS(=O)(=O)[O-])[C@H](OS(=O)(=O)[O-])[C@H]3OS(=O)(=O)[O-])[C@H](OS(=O)(=O)[O-])[C@H]2OS(=O)(=O)[O-])c1)c1ccc(-c2ccc(C(=O)Nc3cc(CO[C@@H]4O[C@H](COS(=O)(=O)[O-])[C@@H](O[C@@H]5O[C@H](COS(=O)(=O)[O-])[C@H](OS(=O)(=O)[O-])[C@H](OS(=O)(=O)[O-])[C@H]5OS(=O)(=O)[O-])[C@H](OS(=O)(=O)[O-])[C@H]4OS(=O)(=O)[O-])cc(CO[C@@H]4O[C@H](COS(=O)(=O)[O-])[C@@H](O[C@@H]5O[C@H](COS(=O)(=O)[O-])[C@H](OS(=O)(=O)[O-])[C@H](OS(=O)(=O)[O-])[C@H]5OS(=O)(=O)[O-])[C@H](OS(=O)(=O)[O-])[C@H]4OS(=O)(=O)[O-])c3)cc2)cc1.[Na+].[Na+].[Na+].[Na+].[Na+].[Na+].[Na+].[Na+].[Na+].[Na+].[Na+].[Na+].[Na+].[Na+].[Na+].[Na+].[Na+].[Na+].[Na+].[Na+].[Na+].[Na+].[Na+].[Na+].[Na+].[Na+].[Na+].[Na+] [EXAMPLE 16, Biphenyl-4,4'-dicarboxylic Acid Bis{[3,5-bis(hepta-O-sulfato-β-D-lactosyloxymethyl)phenyl]amide}Octacosasodium Salt]
Anticoagulation Activity (APTT) Relative to Heparin (normal human plasma): 2.2
IC50 [1]: 3.6 µM

O=C(Nc1cc(CO[C@@H]2O[C@H](COS(=O)(=O)O)[C@@H](O[C@H]3O[C@H](COS(=O)(=O)O)[C@@H](OS(=O)(=O)O)[C@H](OS(=O)(=O)O)[C@H]3OS(=O)(=O)O)[C@H](OS(=O)(=O)O)[C@H]2OS(=O)(=O)O)cc(CO[C@@H]2O[C@H](COS(=O)(=O)O)[C@@H](O[C@H]3O[C@H](COS(=O)(=O)O)[C@@H](OS(=O)(=O)O)[C@H](OS(=O)(=O)O)[C@H]3OS(=O)(=O)O)[C@H](OS(=O)(=O)O)[C@H]2OS(=O)(=O)O)c1)c1ccc(-c2ccc(C(=O)Nc3cc(CO[C@@H]4O[C@H](COS(=O)(=O)O)[C@@H](O[C@H]5O[C@H](COS(=O)(=O)O)[C@@H](OS(=O)(=O)O)[C@H](OS(=O)(=O)O)[C@H]5OS(=O)(=O)O)[C@H](OS(=O)(=O)O)[C@H]4OS(=O)(=O)O)cc(CO[C@@H]4O[C@H](COS(=O)(=O)O)[C@@H](O[C@H]5O[C@H](COS(=O)(=O)O)[C@@H](OS(=O)(=O)O)[C@H](OS(=O)(=O)O)[C@H]5OS(=O)(=O)O)[C@H](OS(=O)(=O)O)[C@H]4OS(=O)(=O)O)c3)cc2)cc1 [EXAMPLE 18]
effect on human endothelial cell growth (human endothelial cell): enhance human endothelial cell growth
Anticoagulation Activity (APTT) Relative to Heparin (normal human plasma): 2.1

O=C(CCC(=O)Nc1cc(CO[C@@H]2O[C@H](COS(=O)(=O)O)[C@@H](O[C@@H]3O[C@H](COS(=O)(=O)O)[C@@H](OS(=O)(=O)O)[C@H](OS(=O)(=O)O)[C@H]3OS(=O)(=O)O)[C@H](OS(=O)(=O)O)[C@H]2OS(=O)(=O)O)cc(CO[C@@H]2O[C@H](COS(=O)(=O)O)[C@@H](O[C@@H]3O[C@H](COS(=O)(=O)O)[C@@H](OS(=O)(=O)O)[C@H](OS(=O)(=O)O)[C@H]3OS(=O)(=O)O)[C@H](OS(=O)(=O)O)[C@H]2OS(=O)(=O)O)c1)Nc1cc(CO[C@@H]2O[C@H](COS(=O)(=O)O)[C@@H](O[C@@H]3O[C@H](COS(=O)(=O)O)[C@@H](OS(=O)(=O)O)[C@H](OS(=O)(=O)O)[C@H]3OS(=O)(=O)O)[C@H](OS(=O)(=O)O)[C@H]2OS(=O)(=O)O)cc(CO[C@@H]2O[C@H](COS(=O)(=O)O)[C@@H](O[C@@H]3O[C@H](COS(=O)(=O)O)[C@@H](OS(=O)(=O)O)[C@H](OS(=O)(=O)O)[C@H]3OS(=O)(=O)O)[C@H](OS(=O)(=O)O)[C@H]2OS(=O)(=O)O)c1 [EXAMPLE 22, N,N'-Bis[3,5-bis(hepta-O-sulfato-β-D-cellobiosyloxymethyl)phenyl]succinamide Octacosasodium Salt]
Anticoagulation Activity (APTT) Relative to Heparin (normal human plasma): 2.0

O=C(Nc1cc(CO[C@@H]2O[C@H](COS(=O)(=O)O)[C@@H](O[C@@H]3O[C@H](COS(=O)(=O)O)[C@@H](OS(=O)(=O)O)[C@H](OS(=O)(=O)O)[C@H]3OS(=O)(=O)O)[C@H](OS(=O)(=O)O)[C@H]2OS(=O)(=O)O)cc(CO[C@@H]2O[C@H](COS(=O)(=O)O)[C@@H](O[C@@H]3O[C@H](COS(=O)(=O)O)[C@@H](OS(=O)(=O)O)[C@H](OS(=O)(=O)O)[C@H]3OS(=O)(=O)O)[C@H](OS(=O)(=O)O)[C@H]2OS(=O)(=O)O)c1)c1ccc(C(=O)Nc2cc(CO[C@@H]3O[C@H](COS(=O)(=O)O)[C@@H](O[C@@H]4O[C@H](COS(=O)(=O)O)[C@@H](OS(=O)(=O)O)[C@H](OS(=O)(=O)O)[C@H]4OS(=O)(=O)O)[C@H](OS(=O)(=O)O)[C@H]3OS(=O)(=O)O)cc(CO[C@@H]3O[C@H](COS(=O)(=O)O)[C@@H](O[C@@H]4O[C@H](COS(=O)(=O)O)[C@@H](OS(=O)(=O)O)[C@H](OS(=O)(=O)O)[C@H]4OS(=O)(=O)O)[C@H](OS(=O)(=O)O)[C@H]3OS(=O)(=O)O)c2)cc1 [EXAMPLE 23, N,N '-Bis[3,5-bis(hepta-O-sulfato-β-D-cellobiosyloxymethyl)phenyl]terephthalamide Octacosasodium Salt]
Anticoagulation Activity (APTT) Relative to Heparin (normal human plasma): 2.0

O=C(Nc1cc(CO[C@@H]2O[C@H](COS(=O)(=O)O)[C@@H](O[C@@H]3O[C@H](COS(=O)(=O)O)[C@@H](OS(=O)(=O)O)[C@H](OS(=O)(=O)O)[C@H]3OS(=O)(=O)O)[C@H](OS(=O)(=O)O)[C@H]2OS(=O)(=O)O)cc(CO[C@@H]2O[C@H](COS(=O)(=O)O)[C@@H](O[C@@H]3O[C@H](COS(=O)(=O)O)[C@@H](OS(=O)(=O)O)[C@H](OS(=O)(=O)O)[C@H]3OS(=O)(=O)O)[C@H](OS(=O)(=O)O)[C@H]2OS(=O)(=O)O)c1)c1ccc(-c2ccc(C(=O)Nc3cc(CO[C@@H]4O[C@H](COS(=O)(=O)O)[C@@H](O[C@@H]5O[C@H](COS(=O)(=O)O)[C@@H](OS(=O)(=O)O)[C@H](OS(=O)(=O)O)[C@H]5OS(=O)(=O)O)[C@H](OS(=O)(=O)O)[C@H]4OS(=O)(=O)O)cc(CO[C@@H]4O[C@H](COS(=O)(=O)O)[C@@H](O[C@@H]5O[C@H](COS(=O)(=O)O)[C@@H](OS(=O)(=O)O)[C@H](OS(=O)(=O)O)[C@H]5OS(=O)(=O)O)[C@H](OS(=O)(=O)O)[C@H]4OS(=O)(=O)O)c3)cc2)cc1 [EXAMPLE 15, Biphenyl-4,4'-dicarboxylic Acid Bis{[3,5-bis(hepta-O-sulfato-β-D-cellobiosyloxymethyl)phenyl]amide}Octacosasodium Salt]
Anticoagulation Activity (APTT) Relative to Heparin (normal human plasma): 2.0-2.3
